Assay results from patent publication US9067898B1, “Isothiazole derivatives as GPR120 agonists for the treatment of type II diabetes” (Janssen Pharmaceutica NV, priority 2014, dated 2015).

How the values were obtained:
Human GPR120 short form = target: T1, Human GPR120 short form (Homo sapiens, UniProt Q5NUL3); experiment: Human GPR120 calcium flux assay (FLIPR), Procedure Calcium B; type: cell-based; conditions: HEK-293 cells expressing human GPR120 short form, 4200 cells/well; read-out: GPR120 Ca2+ Assay B EC50
T1 construct: expressed in transfected cells
T1 sequence (Q5NUL3 1-361): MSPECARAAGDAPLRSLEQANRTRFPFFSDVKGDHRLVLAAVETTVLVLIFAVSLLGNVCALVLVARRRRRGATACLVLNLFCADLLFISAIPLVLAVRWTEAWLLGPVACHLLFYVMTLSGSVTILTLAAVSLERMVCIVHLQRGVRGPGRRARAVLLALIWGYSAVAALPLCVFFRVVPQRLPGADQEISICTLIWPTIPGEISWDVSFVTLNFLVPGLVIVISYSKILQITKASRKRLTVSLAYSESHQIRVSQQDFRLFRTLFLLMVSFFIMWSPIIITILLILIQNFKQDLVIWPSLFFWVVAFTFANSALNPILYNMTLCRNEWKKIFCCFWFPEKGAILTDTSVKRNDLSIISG
From the text: This in vitro assay serves to assess test compound agonist activity against the short splice variant (SVS with Accession number NM_001195755.1 confirmed by sequencing data) of the GPR120 receptor. The Human Short splice variant #2 (NM_001195755.1) is missing an in-frame coding exon compared to variant 1 (the Human Long splice variant NM_181745.3), resulting in a shorter isoform (GPR120-S) lacking a 16 aa protein segment compared to isoform GPR120-L. The assay platform utilizes HEK-293 cells stably transfected to express the Human GPR120 short form. These cells are first loaded with the Ca^+2 sensitive dye, Fluo-4 NW. Upon stimulation, intracellular released Ca^+2 can bind to the dye and alter its fluorescence intensity. This increase in fluorescence signal, and thus the flux in intracellular [Ca^2+], is detected and quantitated by fluorescence imaging using a FLIPR reader. The effect of the agonist is measured as a function of concentration and used to calculate an EC50 based upon a response curve.
In this procedure 4200 cells/well were employed.
A Human GPR120 clone (Genbank accession number NM_001195755.1) was placed into the pcDNA3.1 mammalian expression vector carrying the neomycin resistance gene. A stable mammalian cell was generated by placing the above clone into a HEK293 background. Clonal cells responding to long chain fatty acids had expression levels of GPR120 confirmed by RT-qPCR. Human HEK-GPR120 cells were cultured in Dulbecco's Modified Eagle's Medium (DMEM)/F12 medium supplemented with 10% fetal bovine serum (FBS), 1% L-Glutamine and 1% penicillin/streptomycin and 0.5 mg/ml G-418. Cells were split 2 times a week to keep the cells in the log-phase growth.
In preparation for the assay, HEK cells stably transfected with Human GPR120 (2.5K cells per well in 25 uL growth medium) were seeded into 384-well plates and then incubated overnight (37° C., 5% CO2). The next day, the media was changed to 20 μL assay buffer and the cell starved for 1 h at 37° C. The dye loading solution (2× dye) was prepared using 10 mL assay buffer, 100 μL of 250 mM probenecid, 1 bottle of Component A, and 20 μl of dye in DMSO. Twenty μL of the 2× dye loading buffer was then added to each well. The plates were incubated at 37° C. for 30 min, then at room temperature for an additional 15 minutes, before performing the assay on FLIPR. Test compounds were prepared in assay buffer (2 uL of cpd+198 uL assay buffer, final DMSO in assay plate is 0.2%) at the desired concentration, more particularly at 100, 50, 25, 12.5, 6.25, 3.125, 1.562, 0.781, 0.391, 0.195, 0.098, 0.049, 0.024 and 0.012 μM.
The assay was performed on a FLIPR plate reader using the following parameters. Baseline was read for 10 seconds at 1 sec intervals. The program was set to transfer 10 μL of ligand from compound plate to cell plate after baseline reading. Aspiration was executed at: 10 μL/sec speed, 4.6 μL height; Dispensing was executed at: 30 μL/sec speed, 45 μL height. After compound addition, each well was read for 300 sec, with measurements collected at 1 sec intervals.
The kinetic data from the FLIPR was based upon a 5 minute window for data collection. The fluorescence of each sample well was used for individual calculations of a normalized RFU value, which was defined as maximum response minus the minimum response. The normalized fluorescence reading (RFU) was calculated as follows: RFU=Fmax−Fmin The data were fitted to a sigmoidal dose-response curve with a variable Hill slope (<2) using nonlinear regression with GraphPad Prism 5.0 to calculate the EC50 values. The Fitting Equation was: Y=Bottom+(Top−Bottom)/(1+10^((Log EC50−X)*HillSlope)), where X is the log of the concentration and Y is the response.

[1] = target: T2, short form of the GPR120 receptor (GPR120S) (Homo sapiens, UniProt Q5NUL3); experiment: Human GPR120 DiscoveRx PathHunter Beta-Arrestin assay, Procedure β-arrestin B; type: cell-based; conditions: PathHunter CHO-K1 GPR120S β-Arrestin cell line, 5000 cells/well, read-out: hGPR120 β-arrestin B EC50
T2 construct: host or cells: PathHunter CHO-K1 GPR120S β-Arrestin Cell Line
Summary of the method: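 PathHunter CHO-K1 β-arrestin cells expressed long-form GPR120 (Procedure A, 3000 cells/well) or short-form GPR120 (Procedure B, 5000 cells/well). Compounds were serially diluted from 25 µM and incubated 90 min at 37 °C in HBSS/20 mM HEPES/0.1% BSA, pH 7.4. Luminescence was read after 60 min detection at RT; EC50 comes from % activity versus positive control, Hill slope fixed at 1.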

T2 sequence (P32121 whole entry partner, one chain of several): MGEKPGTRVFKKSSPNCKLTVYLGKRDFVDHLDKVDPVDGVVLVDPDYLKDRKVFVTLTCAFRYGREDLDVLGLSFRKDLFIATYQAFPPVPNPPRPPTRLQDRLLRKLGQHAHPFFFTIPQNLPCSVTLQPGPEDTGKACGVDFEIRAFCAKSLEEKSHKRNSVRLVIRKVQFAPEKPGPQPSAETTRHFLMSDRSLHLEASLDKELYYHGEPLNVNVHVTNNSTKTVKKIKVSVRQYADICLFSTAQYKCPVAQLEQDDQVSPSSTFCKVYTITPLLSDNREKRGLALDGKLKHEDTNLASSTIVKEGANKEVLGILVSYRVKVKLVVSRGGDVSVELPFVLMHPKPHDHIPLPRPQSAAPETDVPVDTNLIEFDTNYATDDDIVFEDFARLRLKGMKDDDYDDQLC

SMILES: Cc1c(CCC(=O)O)ccc(OCc2c(-c3cnc(Cl)s3)nsc2C(F)(F)F)c1C [Cpd 269, 3-(4-{[3-(2-Chloro-1,3-thiazol-5-yl)-5-(trifluoromethyl)isothiazol-4-yl]methoxy}-2,3-dimethylphenyl)propanoic acid]
- EC50 (Human GPR120 short form): 194 nM
- EC50 [1]: 676 nM

SMILES: O=C(O)CCc1cc(F)c(OCc2c(-c3ccc(Cl)cn3)nsc2C(F)(F)F)c(F)c1 [Cpd 270, 3-(4-{[3-(5-Chloropyridin-2-yl)-5-(trifluoromethyl)isothiazol-4-yl]methoxy}-3,5-difluorophenyl)propanoic acid]
- EC50 (Human GPR120 short form): 108 nM
- EC50 [1]: 246 nM

SMILES: COc1ccc(-c2nsc(C(F)(F)F)c2COc2c(F)cc(CCC(=O)O)cc2F)nc1 [Cpd 271, 3-(3,5-Difluoro-4-{[3-(5-methoxypyridin-2-yl)-5-(trifluoromethyl)isothiazol-4-yl]methoxy}phenyl)propanoic acid]
- EC50 (Human GPR120 short form): 242 nM
- EC50 [1]: 325 nM

SMILES: O=C(O)CCc1cc(F)c(OCc2c(-c3ccns3)nsc2C(F)(F)F)c(F)c1 [Cpd 272, 3-(3,5-Difluoro-4-{[5-(trifluoromethyl)-3,5′-biisothiazol-4-yl]methoxy}phenyl)propanoic acid]
- EC50 (Human GPR120 short form): 573 nM
- EC50 [1]: 750 nM

SMILES: CCc1ccc(-c2nsc(C(F)(F)F)c2COc2c(F)cc(CCC(=O)O)cc2F)nc1 [Cpd 273, 3-(4-{[3-(5-Ethylpyridin-2-yl)-5-(trifluoromethyl)isothiazol-4-yl]methoxy}-3,5-difluorophenyl)propanoic acid]
- EC50 (Human GPR120 short form): 427 nM
- EC50 [1]: 721 nM
